According to patent publication US7482008B1, “Human T cell reactive feline protein (TRFP) isolated from house dust and uses therefor” (Merck Patent GmbH, priority 1989, dated 2009):

What was measured:
[1] = system: T cells from cat allergic patients; experiment: T cell proliferation of TRFP-primed T cells from cat allergic patients (tritiated thymidine), Example 5 Part A; type: cell-based, human
Protocol: Peripheral blood mononuclear cells (PBMC) were purified from 60 ml of heparinized blood from cat allergic patients. PBMC were subsequently treated as described below, although in individual cases, the length of time of cultivation with IL-2 and/or IL-4 and the specific peptides used for stimulation varied.
10 ml of PBMC from patient 131 at 10^6 /ml were cultured at 37° C. for 7 days in the presence of 5 μg purified TRFP/ml RPMI-1640 supplemented with 5% pooled human AB serum. Viable cells were purified by Ficoll-Hypaque centrifugation and cultured for three weeks at 5 units recombinant human IL-2/ml and 5 units recombinant human IL-4/ml. The resting T cells were then restimulated (secondary) with 5 μg TRFP at 2×10^5/ml in the presence of irradiated (3500 Rads) autologous PBMC at a concentration of 5×10^5/ml for three days, purified by Ficoll-Hypaque centrifugation and grown in 5 units IL-2 and 5 units IL-4/ml for two weeks. For assay, 2×10^4 resting secondary T cells were restimulated (tertiary) in the presence of 5×10^4 irradiated (3500 Rads) autologous PBMC or 2×10^4 transformed B cells (20,000 Rads) with various concentrations of allergens or their fragments in a volume of 200 microliters in a 96-well round bottom assay plates for 3 days. Each well then received 1 μCurie tritiated (methyl) thymidine for 16 hours. The counts incorporated were collected onto glass fiber filters and processed for liquid scintillation counting.
Antigens used: T cell reactive feline protein (TRFP), Hollister-Stier cat epithelium skin test reagent (CST), IPC ragweed pollen extract (pollen), and synthetic peptides derived from TRFP protein sequence (See FIGS. 6 and 7). Positive T cell proliferation is for these experiments was considered to be greater than 2.5 times the media control (T cells and antigen presenting cells alone).
Alternatively, PBMC were treated as follows: The primary stimulated cells were cultured in IL-2/IL-4 for two weeks. The resting T cells derived from this culture were tested in a secondary assay with some, but not all, of the above allergens. […] This type of epitope analysis has allowed the definition of T cell epitopes present in TRFP.

[2] = system: Human T cell lines from four cat allergic patients; experiment: IL-2 and IL-4 production by TRFP-primed T cell lines of four cat allergic patients; type: cell-based; details: panel of four patients 688, 730, 738, 807
Protocol: Human T cell lines from four cat allergic patients (patients 688, 730, 738, and 807) were isolated. Heparinized peripheral blood specimens were obtained from cat allergic patients and the mononuclear cell fraction was purified by Ficoll-Hypaque centrifugation. An aliquot of these cells (2×10^6) was stimulated in vitro with purified native TRFP (10 μg/ml) and grown in the presence of recombinant IL-2 and IL-4. The T cell line was then rested in culture until ready for secondary proliferation assay. Two×10^4 cells were cultured in 200 μl medium containing various concentrations of test antigens with 5×10^4 γ-irradiated autologous Epstein-Barr Virus transformed cells as antigen presenting cells. After 3 days of culture, each microwell was pulsed overnight with 1 μCurie tritiated thymidine, and the amount of radioactivity incorporated was measured by liquid scintillation counting. The stimulation index (S.I.) for each antigen was then calculated. […] The IL-2 in the medium was measured by proliferation of the IL-2 dependent T cell line, […]. […] IL-4 was measured by an ELISA purchased from R&D Systems, Minneapolis, Minn. […] The stimulation indices for IL-2 and IL-4 production were calculated by dividing the amount of IL-2 or IL-4 contained in the medium from stimulated T cells divided by the amount of IL-2 or IL04 released by non-stimulated T cells.

[3] = system: Patient 155 TRFP secondary primed T cells; experiment: In vitro induction of T cell non-responsiveness, then proliferation on antigenic challenge; type: cell-based, human; details: label = tolerance treatment
Protocol: Patient 155 TRFP secondary primed T cells (2.5×10^6) were rested and cultured with (2.5×10^6) irradiated autologous Epstein Barr Virus transformed B cells (EBV) in 1 ml of complete RPMI with 10% AB serum in 12×75 mm polypropylene snap cap tubes and increasing amounts of antigen over 5 consecutive days. The T cell cultures were exposed to 5 μg/ml purified native TRFP on day 0 and 5 μg/ml, 10 μg/ml, 10 μg/ml and 20 μg/ml thereafter. The peptide treated cultures were exposed to 1 μg/ml peptide on day 0 and 1 μg/ml, 1 μg/ml, 2 μg/ml and 5 μg/ml thereafter. In addition, 0.5 ml of fresh media was replaced on day 2. The cells were then washed and set up for a proliferation assay with 2×10^4 T cells and 2×10^4 irradiated (2500 Rad) autologous EBV and various doses of antigen. T cell proliferation was measured as incorporation of tritiated thymidine at day 9.

B6CBAF1 mice = experiment: Murine T cell response after immunization with peptide YZX, IL-2 production (CTLL-2); type: in vivo, mouse; details: mice immunized with 100 μg peptide YZX in CFA; label = antigen in culture
Protocol: 10 B6CBAF1 mice were immunized subcutaneously at the base of the tail and in the thigh region with 100 μg of peptide YZX in complete Freund's adjuvant. After 10 days, the inguinal, paraaortic, and popliteal nodes of the immunized mice were removed and pooled. The lymph node cells were suspended in cold RPMI 1640 with 1% fetal bovine serum (FBS) by passage through stainless steel mesh. The cells were washed 2 times with cold RPMI-1640 containing 1% FBS and maintained at 4° C.
The lymph node cells were plated at 4×10^6 cells/ml in RPMI 1640 with 10% FBS, 250 μg/ml penicillin G, 100 μg/ml streptomycin, and 5×10^−5 M 2-mercaptoethanol. […] After 24 hours, 50 μl of supernatant was removed from each culture and frozen overnight to eliminate live cell carryover. The supernatant was warmed to […] and washed. CTLL-2 indicator cells (ATCC # T1B 214) were added (5×10^3 cells/well). This indicator cell line requires IL-2 for continued growth. After 24 hours, H^3-thymidine (1 μCi/well) was added and the cells were further incubated for 4 hours. The plates were frozen and thawed, harvested on a Tomtec 96 well harvester (Tomtec, Orange, Conn.), and counted on a Betaplate beta counter (Pharmacia, Gaithersburg, Md.).

Substance: NARILKNCVDAKMTEEDKE [Fel 4, TRFP chain 1 amino acids 37-55]
- PI ([1]; Table 2, chain #1 TRFP peptides, average SI of responding patients multiplied by percent of patients with positive response (SI >2.5)): 601
- SI ([1]; Table 2, chain #1 TRFP peptides, average cpm with antigen divided by cpm of T cells and APC alone, responding patients): 7.7
- IL-4 versus IL-2 production [2]: induces more IL-4 than IL-2

Substance: TRFP: human T cell reactive feline protein affinity purified from house dust; two covalently linked chains
- T cell proliferation following antigenic challenge ([3]; challenge with Fel 8-3): 36,030 cmp
- T cell proliferation following antigenic challenge ([3]; challenge with Ragweed Peptide): 6,670 cmp
- T cell proliferation following antigenic challenge ([3]; challenge with TRFP): 33,160 cmp
- T cell proliferation following antigenic challenge ([3]; no antigenic challenge (—)): 2,190 cmp
- IL-4 versus IL-2 production [2]: favors IL-4 as opposed to IL-2

Substance: peptide X: amino acid residues 7-30 from chain 1 of TRFP (SEQ. ID. NO: 17); Table 2 lists Fel 8-3 as 7-33 (KRDVDLFLTGTPDEYVEQVAQYKALPV)
- T cell stimulatory activity ([1]; summary in words of Tables 2 and 3): powerful activity
- T cell proliferation following antigenic challenge ([3]; challenge with Fel 8-3): 3,850 cmp
- T cell proliferation following antigenic challenge ([3]; challenge with Ragweed Peptide): 5,130 cmp
- T cell proliferation following antigenic challenge ([3]; challenge with TRFP): 12,320 cmp
- T cell proliferation following antigenic challenge ([3]; no antigenic challenge (—)): 1,270 cmp
- T cell response of pooled lymph node cells (IL-2 production) (B6CBAF1 mice): significant response

Substance: peptide Y: amino acid residues 29-55 from chain 1 of TRFP (SEQ. ID. NO: 18) (KALPVVLENARILKNCVDAKMTEEDKE)
- T cell response of pooled lymph node cells (IL-2 production) (B6CBAF1 mice): significant response
